Structures are written as SMILES.

Data set [1] is described as follows: Toxicity against mouse HMC incubated for 24 hrs. The settings on record: HMC cells, read-out: LC50.
Data set [2] in a line: Selectivity index, ratio of LC50 for mouse HMC to IC50 for Trypanosoma cruzi Y bloodstream trypomastigotes.
For another data set, the system named is Trypanosoma cruzi. The data set is described as follows: Trypanocidal activity against Trypanosoma cruzi Y bloodstream trypomastigotes in presence of 10% mouse blood assessed as induction of parasite lysis incubated for 24 hrs by Neubauer chamber based cell counting method. In kind it is functional, organism-based.

Regarding `Cc1ccc(SC2C3=C(OC2(C)C)c2ccccc2C(=O)C3=O)cc1` (stereo not given), the CC50 at 24 h in data set [1] worked out at 20.5 µM. The Ratio LC50/IC50 in data set [2] amounted to 0.34. For the same molecule, the IC50 in the data set with Trypanosoma cruzi turned out to be 59.5 µM.

As for `CC1(C)OC2=C(C(=O)C(=O)c3ccccc32)C1Sc1ccc(Cl)cc1` (stereo not given), the CC50 at 24 h in data set [1] came out at 38.9 µM. The Ratio LC50/IC50 in data set [2] was 4.23. The IC50 with Trypanosoma cruzi is 9.2 µM.

For `CC1(C)OC2=C(C(=O)C(=O)c3ccccc32)C1Sc1c(F)c(F)c(F)c(F)c1F` (stereo not given), in the data set with Trypanosoma cruzi, the IC50 stood at 183 µM.

In the case of `CC1(C)OC2=C(C(=O)C(=O)c3ccccc32)C1Sc1ccc(F)cc1` (stereo not given), in the data set on Trypanosoma cruzi, the IC50 worked out at 165 µM.

As to `Cc1cccc(SC2C3=C(OC2(C)C)c2ccccc2C(=O)C3=O)c1` (stereo not given), the CC50 at 24 h in data set [1] was found to be 25.8 µM. In data set [2], the Ratio LC50/IC50 amounted to 0.31. The IC50 in the data set with Trypanosoma cruzi was determined as 83.6 µM.

Regarding `COc1ccc(SC2C3=C(OC2(C)C)c2ccccc2C(=O)C3=O)cc1` (stereo not given), the IC50 with Trypanosoma cruzi is 158 µM.

`CC1(C)OC2=C(C(=O)C(=O)c3ccccc32)C1Sc1ccccc1` (stereo not given): the CC50 at 24 h in data set [1] turned out to be 17.5 µM. For the same molecule, the Ratio LC50/IC50 in data set [2] is 0.54. Besides, in the data set on Trypanosoma cruzi, the IC50 amounted to 32.3 µM.

Broadly, the IC50 is the concentration that gives 50% inhibition.

For the origin of these results see ChEMBL document CHEMBL3593167, “Synthesis and anti-Trypanosoma cruzi activity of new 3-phenylthio-nor-β-lapachone derivatives” (Bioorg Med Chem, 2015).
